# According to patent US20250186418A1, “COMPOSITIONS CONTAINING NICOTINAMIDE AND VITAMIN B6 AND METHODS OF USING SUCH COMPOSITIONS FOR REHABILITATION” (SOCIETE DES PRODUITS NESTLE S.A., priority 2020, published 2025):
# System: Human primary myoblasts
# Experiment: Myogenic amplification and commitment of muscle stem cells (Pax7/MyoD staining of human primary myoblasts)
# Type: cell-based
# Settings: donors 1 and 2 pooled, normalized to total cell number, control DMSO 1%, 96 hours; for proportion of MyoD+ cells, fold change compared to the control condition: FIG. 1B/2B
# Experimental: Human Skeletal Muscle Myoblasts were purchased from Lonza (https://bioscience.lonza.com). These cells were isolated from the upper arm or leg muscle tissue of normal donors and used after the second passage. Several donors were tested to ensure cell viability and purity before selecting the final donors, which are a person (refer thereafter as Donor 1), a person (refer thereafter as Donor 2) and a person (refer thereafter as Donor 3). Human primary myoblasts were seeded in 384 well plates at a density of 1'000 cells per well in skeletal muscle growth medium (SKM-M, AMSbio). For treatment, compounds were directly added to the myoblast cultures 16 hours after initial plating. All cultures were then grown for 96 hours. Cells were stained for Pax7 and MyoD expression using antibodies directed against Pax7 and MyoD and counterstained with Hoechst 33342 to visualize cell nuclei. Pax7+ cells are defined as cells that express Pax7 regardless of MyoD expression. […] Image acquisition was performed using the ImageXpress (Molecular Devices) platform. Custom module analysis based on Multi-Wavelength Cell Scoring of the MetaXpress software was used for quantification. *, **, ***, **** indicates difference from the control, One-way ANOVA, with p<0.05, p<0.01, p<0.001, p<0.0001, respectively. Data are presented as Mean+/−SEM Human primary myoblasts from different donors (donor 1, donor 2 or donor 3) were seeded in 384 well plates at a density of 1′000 cells per well in skeletal muscle growth medium (SKM-M, AMSbio). For treatment, compounds were directly added to the myoblast cultures 16 hours after initial plating. All cultures were then grown for 96 hours. Cells were stained for Pax7 and MyoD expression using antibodies directed against Pax7 and MyoD and counterstained with Hoechst 33342 to visualize cell nuclei. Pax7+ cells are defined as cells that express Pax7 regardless of MyoD expression. […] Image acquisition was performed using the ImageXpress (Molecular Devices) platform. Custom module analysis based on Multi-Wavelength Cell Scoring of the MetaXpress software was used for quantification. […]
SMILES,"proportion of Pax7+ cells, fold change compared to the control condition (FIG. 1A/2A)","proportion of MyoD+ cells, fold change compared to the control condition"
NC(=O)c1cccnc1 [Nicotinamide],increasing the proportion of both amplifying (Pax7+) and differentiating (MyoD+) cells in a dose dependent manner,increasing the proportion of both amplifying (Pax7+) and differentiating (MyoD+) cells in a dose dependent manner
Cc1ncc(CO)c(CO)c1O [Pyridoxine],–,increasing the proportion of differentiating (MyoD+) cells in a dose dependent manner
